From patent US20140323534A1, “USES OF 3'-DESFERRITHIOCIN ANALOGS” (University of Florida Research Foundation, Inc., priority 2011, published 2014) come the findings set out here.

Data set [1] deals with acetic acid-induced colitis in rats. The data set is described as follows: Prevention of acetic acid-induced colitis in a rat model. It is filed as in vivo, Sprague-Dawley rats. The conditions noted are these: FIG. 1: 20 mg/kg IV 30 minutes before the 4% acetic acid.
The nature of the next data set: LogPapp of DFT analogs. It is filed as physicochemical.
The nature of data set [2]: Concentration of DFT analogs in rat plasma and cerebrospinal fluid after oral (PO) and subcutaneous (SC) doses. In kind it is in vivo, Sprague-Dawley rats. The conditions noted are these: rats, monosodium salt; for concentration at 0.5 h / concentration at 1 h / concentration at 2 h / concentration at 4 h / concentration at 8 h: male, Sprague-Dawley, rat; for concentration at 8 h / Concentration in plasma: 8 h. The procedure: The DFT analogs useful in the inventive methods were converted from the free acid form to the monosodium salt form. Water followed by one equivalent of sodium hydroxide was added to the DFT analog as a free acid. The resulting slurry was vortexed or sonicated until the DFT analog went into solution. More water was added, and the solution was vortexed or sonicated again. The formed yellow solution, having a pH about 7, was used as a sample solution in the following examples. It is preferred that a fresh sample solution of the DFT analog is made shortly before the solution is used in an assay.
Adult male Sprague-Dawley rats (450-500 g) were used. The rats were not fasted. A sample solution of a monosodium salt of (S)-3′-(HO)-DADFT-norPE (II-A) or (S)-3′-(HO)-DADFT-PE (III-A) was administered to the rats at an oral or subcutaneous dose of 300 μmol/kg. Concentrations of the DFT analogs in the plasma and cerebrospinal fluid of the rats were measured at 0.5 hour, 1 hour, 2 hours, 4 hours, and 8 hours post administration.

[3] abbreviates: cerebrospinal fluid, 300 μmol/kg SC, read-out: Concentration in cerebrospinal fluid.
Setting [4] is: plasma, 300 μmol/kg SC, read-out: Concentration in plasma.
[5] abbreviates: cerebrospinal fluid, 300 μmol/kg PO, read-out: Concentration in cerebrospinal fluid.
Where [6] appears, read: plasma, 300 μmol/kg PO, read-out: Concentration in plasma.

Molecules are shown by their SMILES. Where two headings read alike, the source gives them in different places.

Turning to `CC(=O)N(O)CCCCCNC(=O)CCC(=O)N(O)CCCCCNC(=O)CCC(=O)N(O)CCCCCN` [DFO, desferrioxamine], the “Effect on acetic acid-induced colitis” value in data set [1] was “prevent acetic acid-induced colitis”.

In “LogPapp of DFT analogs”, `COCCOCCOc1cccc(C2=N[C@@](C)(C(=O)O)CS2)c1O` [II-A] gave a LogPapp of −0.93. Moreover, the concentration at 0.5 h in data set [2] (cerebrospinal fluid, 300 μmol/kg SC, 0.5 h, read-out: Concentration in cerebrospinal fluid) was 0 µM; in data set [2] (plasma, 300 μmol/kg SC, 0.5 h, read-out: Concentration in plasma) it was 77 ± 10 µM. Besides, the concentration at 1 h in data set [2] (setting [3]) came out at 0 µM; in data set [2] (setting [4]), 66 ± 5 µM. Besides, the concentration at 2 h turned out to be 0 µM in data set [2] (setting [3]) and 44 ± 2 µM in data set [2] (setting [4]). In addition, the concentration at 4 h in data set [2] (setting [3]) amounted to 0 µM; in data set [2] (setting [4]), 7 ± 1 µM. Further, in data set [2] (cerebrospinal fluid, 300 μmol/kg SC), the concentration at 8 h is 0 nM. Moreover, the Concentration in plasma entry in data set [2] (300 μmol/kg SC) is “trace”.

Take `COCCOCCOCCOc1cccc(C2=N[C@@](C)(C(=O)O)CS2)c1O` [III-A]: in the data set “LogPapp of DFT analogs”, the LogPapp is −1.22. Further, in data set [2] (setting [5]), the concentration at 1 h turned out to be 0 µM, the concentration at 2 h turned out to be 0 µM and the concentration at 4 h turned out to be 0 µM. Further, the concentration at 8 h in data set [2] (cerebrospinal fluid, 300 μmol/kg PO) stood at 0 nM. Besides, in data set [2] (plasma, 300 μmol/kg PO, 0.5 h, read-out: Concentration in plasma), the concentration at 0.5 h amounted to 62 ± 24 µM. In data set [2] (setting [6]), the concentration at 1 h was determined as 46 ± 3 µM, the concentration at 2 h was found to be 24 ± 5 µM and the concentration at 4 h stood at 13 ± 2 µM. Also, in data set [2] (300 μmol/kg PO, 0.5 h), the “Concentration in cerebrospinal fluid” value is given as “trace”. In addition, the Concentration in plasma result in data set [2] (300 μmol/kg PO) is listed as “trace”.
